Assay results as given in PubChem BioAssay (NCI).
“And” between values parts separate entries of the source, which are not always exact repeats. Equal values may be shown once.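 Cultured in 96-well plates, cells were exposed to test compound for 48 hours across five concentrations. GI50 marks 50% less growth. TGI is the concentration that stops growth completely.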

Columns and labels:
Test in all cases: NCI tumour cell line growth inhibition, 48 h
DMS 114 small cell lung = tested on: DMS 114 small cell lung
DMS 273 small cell lung = tested on: DMS 273 small cell lung
KM20L2 colon = tested on: KM20L2 colon
LXFL 529 NSCLC = tested on: LXFL 529 NSCLC
RXF-631 renal = tested on: RXF-631 renal
SNB-78 CNS = tested on: SNB-78 CNS
P388 leukemia = tested on: P388 leukemia
P388/ADR leukemia = tested on: P388/ADR leukemia
XF 498 CNS = tested on: XF 498 CNS
SN12K1 renal = tested on: SN12K1 renal

| Structure (SMILES) | TGI (DMS 114 small cell lung) | TGI (DMS 273 small cell lung) | TGI (KM20L2 colon) | TGI (LXFL 529 NSCLC) [µM] | TGI (RXF-631 renal) [µM] | TGI (SNB-78 CNS) | GI50 (DMS 114 small cell lung) [nM] | GI50 (DMS 273 small cell lung) [µM] | GI50 (LXFL 529 NSCLC) [mM] | TGI (P388 leukemia) [µM] | TGI (P388/ADR leukemia) [µM] | GI50 (RXF-631 renal) [µM] | GI50 (SNB-78 CNS) | GI50 (XF 498 CNS) [µM] | TGI (XF 498 CNS) | TGI (SN12K1 renal) [µM] | GI50 (KM20L2 colon) [nM] |
| --- | --- | --- | --- | --- | --- | --- | --- | --- | --- | --- | --- | --- | --- | --- | --- | --- | --- |
| O=C1NC2(NC(=O)C1=O)Nc1ccccc1S2 | 79.8 µM | > 100 µM | > 100 µM | > 87.3 | 47.9 | > 100 µM | – | – | – | – | – | – | – | – | – | – | – |
| Nc1nccc2c1ncn2C1C=C(CO)C(O)C1O (stereo not drawn) | > 1000 µM | > 1000 µM | – | > 1000 | > 1000 | > 1000 µM | 2180 | 6.13 | > 1 | > 76.4 | 40.8 | 902 | > 1000 µM | 817 | > 1000 µM | – | – |
| Cc1ccc([S+](c2ccccc2)c2cc(C)ccc2C)cc1 (stereo not drawn) | 13.8 µM | 15.3 µM | – | – | – | – | – | – | – | – | – | – | – | – | – | – | – |
| O=[P+](O)c1cccs1 | > 100 µM | > 100 µM | > 100 µM | > 100 | – | – | – | – | – | – | – | – | – | – | > 100 µM | – | – |
| O=NN(CCCl)C(=O)Nc1ccc(Cl)c(Cl)c1 | > 100 µM | > 100 µM | > 69.3 µM | – | – | > 100 µM | – | – | – | > 100 | > 100 | – | – | – | 99.7 µM | > 100 | – |
| COC[C@@H]1Cc2cc(OC)c3c(c2[C@H](c2ccc(OC)c(OC)c2)[C@H]1COC)OCO3 | > 100 µM | > 100 µM | > 100 µM | > 100 | > 100 | – | – | – | – | – | – | – | – | – | > 100 µM | – | – |
| CC1C(O)[C@@]2(OC[C@@]34C(=O)CC5(O)[C@H](CCC6Cc7nc8c(nc7C[C@]65C)CC5CC[C@@H]6C7=C[C@H]9O[C@@]%10(O[C@@](C)(CO)C[C@@H]%10O)C(C)[C@@]9(O)[C@]7(C)[C@@H](O)CC6[C@]5(C)C8)C3=CC[C@H]4C2C)OC1(C)C (stereo partly drawn) | 0.0942 µM | 0.000455 µM | 0.0669 µM | – | – | 3.44 µM | – | – | – | > 3.55 | 0.0266 | – | – | – | – | > 3.55 | – |
| Cc1ccc(NC(=O)CC(=O)n2nc(-c3ccccc3)c(N=Nc3ccccc3C(=O)O)c2-c2ccccc2)cc1 | – | > 100 µM | > 100 µM | > 100 | > 100 | – | – | – | – | – | – | – | – | – | – | – | – |
| COc1cccc2c1C(=O)c1c(O)c3c(c(O)c1C2=O)C[C@@](O)(C(C)=O)C[C@@H]3OC1CC(N(C)C)C(O)C(C)O1 (stereo partly drawn) | 0.302 µM and 0.274 µM | 0.204 µM and 0.18 µM | 0.307 µM and 0.367 µM | 1 | – | 1.04 µM and 0.467 µM | < 19.9 | 0.0054 | – | 0.0139 | 0.135 | – | 0.0302 µM and 0.0169 µM | – | 0.403 µM and 0.0877 µM | 0.0851 | < 13.3 |
| O=C1CSc2sc(=S)sc2S1 | > 100 µM | > 100 µM | > 100 µM | – | – | 99.2 µM | – | – | – | > 100 | 97.8 | – | – | – | > 100 µM | > 100 | – |
